Read-outs that look alike come from different tables or passages of the source.
How the values were obtained:
Ly10 DLBCL cells = test: Growth inhibition of DLBCL cells, Ly10; type: cell-based; conditions: Table 9, Bcl6 dependent, read-out: GI 50 Ly10
Method: (§1) 50,000 cells per well were treated for 48 hours with different concentrations of the compounds in 96 well plates, using DMSO as a control. Then, viability was determined with Cell Titer Blue™ (Promega) and growth inhibition was calculated as the percentage of viable cells with respect to cells treated with DMSO alone. GI50 values were determined by dose-response curves.
(§2) 293T cells were grown in Dulbecco's modified Eagles medium supplemented with 10% fetal bovine serum (FBS) (Gemini Bio-Products, Woodland, Calif.) and 1% penicillin-streptomycin. DLBCL cell lines OCI-Ly1, OCI-Ly1-B50, OCI-Ly7, OCI-Ly10 and OCI-Ly19 were grown in 80% Iscove's medium, 20% FBS and penicillin G/streptomycin. DLBCL cell lines Toledo, Farage, SU-DHL4, DOHH-2, SC-1, RCK8, TMD8, HBL-1, Ly3, Karpas 422 and SU-DHL6 were cultured in 90% RPMI medium, 10% FBS, 2 mM glutamine, 10 mM Hepes and penicillin G/streptomycin. All cell lines were cultured at 37° C. in a humidified atmosphere of 5% CO2.

Ly1B50 DLBCL cells = test: Growth inhibition of DLBCL cells, Ly1B50; type: cell-based; conditions: Bcl6 independent, read-out: GI 50 Ly1B50
Method: as §1, §2

WSU-DLCL2 DLBCL cells = test: Growth inhibition of DLBCL cells, WSU-DLCL2; type: cell-based; conditions: Homo sapiens, WSUDLCL2
Method: as §1

SUDHL6 DLBCL cells = test: Growth inhibition of DLBCL cells, SUDHL6; type: cell-based; conditions: Homo sapiens, SU-DHL-6
Method: as §1, §2

Ly7 DLBCL cells = test: Growth inhibition of DLBCL cells, Ly7; type: cell-based
Method: as §1, §2

Karpas 422 DLBCL cells = test: Growth inhibition of DLBCL cells, Karpas 422; type: cell-based; conditions: Homo sapiens
Method: as §1, §2

Toledo DLBCL cells = test: Growth inhibition of DLBCL cells, Toledo; type: cell-based; conditions: Homo sapiens
Method: as §1, §2

Ly4 DLBCL cells = test: Growth inhibition of DLBCL cells, Ly4; type: cell-based; conditions: Table 9; Bcl6 independent; read-out: GI 50 Ly4
Method: as §1

Ly3 DLBCL cells = test: Growth inhibition of DLBCL cells, Ly3; type: cell-based
Method: as §1, §2

Ly1 DLBCL cells = test: Growth inhibition of DLBCL cells, Ly1; type: cell-based; conditions: Bcl6 dependent, read-out: GI 50 Ly1
Method: as §1, §2

BCL6-BTB = BCL6-BTB (Homo sapiens, UniProt P41182); test: MicroScale Thermophoresis binding to BCL6-BTB
Method: BCL6 is also required for normal development of germinal center (GC) B-cells.
Recombinant BCL6-BTB was labeled using the RED-NHS Labeling kit (NanoTemper Technologies). […] The label:protein ratio was determined using photometry at 650 nm and Bradford reagent. […] The labeled BCL6-BTB was adjusted to 400 nM with PBS (Thermo) buffer supplemented with 0.05% Tween-80 (Fisher scientific). […] After 10 min incubation, approximately 4 μL of each solution was filled into Monolith NT Standard Treated Capillaries (NanoTemper Technologies GmbH). Thermophoresis was measured using a Monolith NT.115 instrument (NanoTemper Technologies GmbH) at an ambient temperature of 25° C. with 5 s/30 s/5 s laser off/on/off times, respectively. Instrument parameters were adjusted with 90% LED power and 40% MST power. Data of three independent experiments were analyzed (NT.Analysis software version 1.5.41, NanoTemper Technologies) using the signal from Thermophoresis.

[1] = Table 10, BCL6 dependent, read-out: GI50 SUDHL6
[2] = Table 4, Bcl6 independent, read-out: GI 50 WSUDLCL2
[3] = Table 4, Bcl6 dependent, read-out: GI 50 SUDHL6
[4] = Table 4, Bcl6 dependent, read-out: GI 50 Ly7
[5] = Table 4, Bcl6 independent, read-out: GI 50 K422
[6] = Table 4, Bcl6 independent, read-out: GI 50 Toledo
[7] = Table 4, Bcl6 dependent, read-out: GI 50 Ly3
[8] = Table 13, BCL6 dependent, read-out: GI50 SUDHL6
[9] = Table 7, BCL6 dependent, read-out: GI50 SUDHL6
[10] = Table 8, Bcl-6 dependent, read-out: GI50 SUDH6
[11] = Table 8, Bcl-6 independent, read-out: GI50 Karpas 422

Structure (SMILES) | GI50 (Ly1B50 DLBCL cells; Table 4) | GI50 (WSU-DLCL2 DLBCL cells; [2]) | GI50 (SUDHL6 DLBCL cells; [3]) | GI50 (Ly7 DLBCL cells; [4]) | GI50 (Karpas 422 DLBCL cells; [5]) | GI50 (Toledo DLBCL cells; [6]) | GI50 (Ly3 DLBCL cells; [7]) | GI50 (Ly1 DLBCL cells; Table 4) | GI50 (WSU-DLCL2 DLBCL cells; Table 8, Bcl-6 independent) | GI50 (SUDHL6 DLBCL cells; [10]) | GI50 (Ly7 DLBCL cells; Table 8, Bcl-6 dependent) | GI50 (Karpas 422 DLBCL cells; [11]) | GI50 (Toledo DLBCL cells; Table 8, Bcl-6 independent) | GI50 (Ly3 DLBCL cells; Table 8, Bcl-6 dependent) | further results
O=C(CN1C(=O)C(=O)c2cc(Cl)ccc21)OCc1ccc(Cl)cc1 [Compound 355] | – | – | – | – | – | – | – | – | – | – | – | – | – | – | GI50 (Ly10 DLBCL cells): 62 µM; GI50 (Ly1B50 DLBCL cells; Table 9): 55 µM; GI50 (WSU-DLCL2 DLBCL cells; Table 9, Bcl6 independent, read-out: GI 50 WSUDLCL2): 52 µM; GI50 (SUDHL6 DLBCL cells; Table 9, Bcl6 dependent, read-out: GI 50 SUDHL6): 1 µM; GI50 (SUDHL6 DLBCL cells; [1]): 42 ± 10 µM; GI50 (Ly7 DLBCL cells; Table 9, Bcl6 dependent, read-out: GI 50 Ly7): 45 µM; GI50 (Ly7 DLBCL cells; Table 10, BCL6 dependent): 43 ± 3 µM; GI50 (Karpas 422 DLBCL cells; Table 9, Bcl6 independent, read-out: GI 50 K422): 38 µM; GI50 (Toledo DLBCL cells; Table 9, Bcl6 independent, read-out: GI 50 Toledo): 35 µM; GI50 (Toledo DLBCL cells; Table 10, BCL6 independent): 45 ± 7 µM; GI50 (Ly4 DLBCL cells): 81 µM; GI50 (Ly3 DLBCL cells; Table 9, Bcl6 dependent, read-out: GI 50 Ly3): 54 µM; GI50 (Ly1 DLBCL cells; Table 9): 37 µM
O=C(CN1C(=O)C(=O)c2cc(Cl)ccc21)OCc1ccsc1 [Compound 367] | – | – | – | – | – | – | – | – | – | – | – | – | – | – | Kd (BCL6-BTB; Table 10): 324 ± 34 µM; GI50 (SUDHL6 DLBCL cells; [1]): 15 ± 7 µM; GI50 (Ly7 DLBCL cells; Table 10, BCL6 dependent): 22 ± 4 µM; GI50 (Toledo DLBCL cells; Table 10, BCL6 independent): 53 ± 10 µM
Cc1cccc(COC(=O)CN2C(=O)/C(=C3\SC(=S)N(CCC(=O)O)C3=O)c3cc(Cl)ccc32)c1 [Compound 374] | > 125 µM | 99 ± 20 µM | 48 ± 17 µM | > 125 µM | > 125 µM | > 125 µM | > 125 µM | > 125 µM | – | – | – | – | – | – | –
O=C(O)CCN1C(=O)/C(=C2/C(=O)N(CC(=O)OCc3ccc(C(F)(F)F)cc3)c3ccc(Cl)cc32)SC1=S [Compound 375] | > 125 µM | > 125 µM | 29 ± 14 µM | > 125 µM | > 125 µM | > 125 µM | > 125 µM | > 125 µM | – | – | – | – | – | – | –
O=C(O)CCN1C(=O)/C(=C2/C(=O)N(CC(=O)OCc3ccc(F)cc3)c3ccc(Cl)cc32)SC1=S [Compound 377] | > 125 µM | > 125 µM | 104 µM | > 125 µM | > 125 µM | > 125 µM | > 125 µM | > 125 µM | – | – | – | – | – | – | –
O=C(O)CCN1C(=O)/C(=C2/C(=O)N(CC(=O)OCc3cccc(F)c3)c3ccc(Cl)cc32)SC1=S [Compound 378] | > 125 µM | > 125 µM | 53.4 µM | > 125 µM | > 125 µM | > 125 µM | > 125 µM | > 125 µM | – | – | – | – | – | – | –
O=C(O)CCN1C(=O)/C(=C2/C(=O)N(CC(=O)OCc3cccc(C(F)(F)F)c3)c3ccc(Cl)cc32)SC1=S [Compound 380] | 68 µM | 67 ± 12 µM | 18 ± 7 µM | 94 ± 19 µM | 69 ± 4 µM | 93 ± 23 µM | 71 ± 18 µM | 106 ± 20 µM | – | – | – | – | – | – | –
C[C@@H](OC(=O)CN1C(=O)/C(=C2\SC(=S)N(CCC(=O)O)C2=O)c2cc(Cl)ccc21)c1ccccc1 [Compound 381] | > 125 µM | > 125 µM | 22 ± 8 µM | > 125 µM | > 125 µM | > 125 µM | > 125 µM | > 125 µM | – | – | – | – | – | – | –
Clc1ccc2[nH]c(SCc3ccccc3)nc2c1 [Compound 1057] | – | – | – | – | – | – | – | – | – | – | – | – | – | – | Kd (BCL6-BTB; Table 13): 87 ± 12 µM; GI50 (SUDHL6 DLBCL cells; [8]): > 125 µM; GI50 (Ly7 DLBCL cells; Table 13, BCL6 dependent): > 125 µM; GI50 (Toledo DLBCL cells; Table 13, BCL6 independent): > 125 µM
O=[N+]([O-])c1ccc2[nH]c(SCc3ccccc3)nc2c1 [Compound 1061] | – | – | – | – | – | – | – | – | – | – | – | – | – | – | Kd (BCL6-BTB; Table 13): 180 ± 36 µM; GI50 (SUDHL6 DLBCL cells; [8]): 40 ± 10 µM; GI50 (Ly7 DLBCL cells; Table 13, BCL6 dependent): 60 µM; GI50 (Toledo DLBCL cells; Table 13, BCL6 independent): > 125 µM
CCOc1ccc2[nH]c(SCc3ccccc3)nc2c1 [Compound 1063] | – | – | – | – | – | – | – | – | – | – | – | – | – | – | Kd (BCL6-BTB; Table 13): 315 ± 24 µM; GI50 (SUDHL6 DLBCL cells; [8]): > 125 µM; GI50 (Ly7 DLBCL cells; Table 13, BCL6 dependent): > 125 µM; GI50 (Toledo DLBCL cells; Table 13, BCL6 independent): > 125 µM
O=C(CN1C(=O)C(=O)c2cc(Cl)ccc21)OCc1ccccc1 [Compound 2071] | – | – | – | – | – | – | – | – | > 40 µM | 10 ± 1 µM | 26 ± 1 µM | > 40 µM | > 40 µM | > 40 µM | GI50 (SUDHL6 DLBCL cells; [9]): 35 µM; GI50 (Ly7 DLBCL cells; Table 7, BCL6 dependent): 53 µM; GI50 (Toledo DLBCL cells; Table 7, BCL6 independent): > 125 µM
O=C(CN1C(=O)C(=O)c2cc(F)ccc21)OCc1ccccc1 [Compound 2073] | – | – | – | – | – | – | – | – | > 40 µM | 17 ± 1 µM | 36 ± 7 µM | > 40 µM | > 40 µM | > 40 µM | GI50 (SUDHL6 DLBCL cells; [9]): 30 µM; GI50 (Ly7 DLBCL cells; Table 7, BCL6 dependent): 30 µM; GI50 (Toledo DLBCL cells; Table 7, BCL6 independent): 40 µM
O=C(O)CCN1C(=O)/C(=C2/C(=O)N(CC(=O)OCc3ccccc3)c3ccc(F)cc32)SC1=S [Compound 2097] | – | – | – | – | – | – | – | – | > 30 µM | > 30 µM | > 30 µM | > 30 µM | > 30 µM | > 30 µM | –
O=C(O)CCN1C(=O)/C(=C2/C(=O)N(CC(=O)OCc3ccccc3)c3ccc(Cl)cc32)SC1=S [Compound 2099] | – | – | – | – | – | – | – | – | > 30 µM | > 30 µM | > 30 µM | > 30 µM | > 30 µM | > 30 µM | Kd (BCL6-BTB; Table 5): 5.5 ± 0.7 µM; GI50 (SUDHL6 DLBCL cells; Table 5, BCL6 dependent, read-out: GI50 SUDHL6): 30 ± 7 µM; GI50 (Ly7 DLBCL cells; Table 5, BCL6 dependent): 65 µM; GI50 (Toledo DLBCL cells; Table 5, BCL6 independent): 75 µM
O=C(O)CCN1C(=O)/C(=C2/C(=O)N(CC(=O)OCc3ccccc3)c3ccc(Br)cc32)SC1=S [Compound 2101] | – | – | – | – | – | – | – | – | > 30 µM | > 30 µM | > 30 µM | > 30 µM | > 30 µM | > 30 µM | –
